Reference: ChEMBL document CHEMBL1201862, “PubChem BioAssay data set” (2004)
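How tested: cells in 96-well plates exposed to compound for 48 hours at five concentrations. Abbreviation: GI50, concentration required for 50% inhibition of growth.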 The source made the active and inactive calls. Rule as the data show it: active = GI50 up to about 1.1 µM and inactive = higher.

Legend:
Assay in all cases: DTP human tumour cell line panel, 48 h
SR = tested on: SR
HCT-15 = tested on: HCT-15
EKVX = tested on: EKVX
UO-31 = tested on: UO-31
CAKI-1 = tested on: CAKI-1
UACC-257 = tested on: UACC-257
U-251 = tested on: U-251
SK-OV-3 = tested on: SK-OV-3
HCT-116 = tested on: HCT-116
SNB-75 = tested on: SNB-75
MDA-N = tested on: MDA-N
COLO 205 = tested on: COLO 205
LOX IMVI = tested on: LOX IMVI
M14 = tested on: M14
HOP-62 = tested on: HOP-62
T47D = tested on: T47D
A549 = tested on: A549
NCI/ADR-RES = tested on: NCI/ADR-RES
BT-549 = tested on: BT-549

Row | SMILES | GI50 (SR) | GI50 (HCT-15) [µM] | GI50 (EKVX) | GI50 (UO-31) | GI50 (CAKI-1) | GI50 (UACC-257) | GI50 (U-251) | GI50 (SK-OV-3) | GI50 (HCT-116) | GI50 (SNB-75) | GI50 (MDA-N) | GI50 (COLO 205) | GI50 (LOX IMVI) | GI50 (M14) | GI50 (HOP-62) | GI50 (T47D) | GI50 (A549) | GI50 (NCI/ADR-RES) | GI50 (BT-549)
1 | CC1(c2ccc(F)cc2)CC(c2ccc(F)cc2)=C(C#N)C(=C(C#N)C#N)N1 (stereo not given) | 14.9 µM (inactive) | 14.8 | 17 µM (inactive) | 17.1 µM (inactive) | 16 µM (inactive) | 15.3 µM (inactive) | 16.6 µM (inactive) | 21.8 µM (inactive) | 15.6 µM (inactive) | 19.8 µM (inactive) | 17.4 µM (inactive) | 5.56 µM (inactive) | 18.6 µM (inactive) | 18.7 µM (inactive) | 19.7 µM (inactive) | 13.3 µM (inactive) | 19.1 µM (inactive) | 20.5 µM (inactive) | 24.9 µM (inactive)
2 | Nc1nc(SCc2ccccc2)c2ncn(Cc3ccccc3)c2n1 | > 56.9 µM (inactive) | > 81.3 | > 100 µM (inactive) | > 100 µM (inactive) | 30.1 µM (inactive) | > 71 µM (inactive) | > 100 µM (inactive) | > 100 µM (inactive) | > 100 µM (inactive) | 35.8 µM (inactive) | > 100 µM (inactive) | > 100 µM (inactive) | > 100 µM (inactive) | > 100 µM (inactive) | > 100 µM (inactive) | > 47.6 µM (inactive) | > 96.2 µM (inactive) | > 100 µM (inactive) | > 100 µM (inactive)
3 | O=C(O)c1c(CC(Cc2ccc3c(c2)CCCC3)C(=O)O)ccc2c1CCCC2 (stereo not given) | > 100 µM (inactive) | > 100 | > 100 µM (inactive) | > 100 µM (inactive) | > 100 µM (inactive) | > 100 µM (inactive) | > 100 µM (inactive) | > 100 µM (inactive) | > 100 µM (inactive) | > 100 µM (inactive) | > 100 µM (inactive) | > 100 µM (inactive) | > 100 µM (inactive) | > 100 µM (inactive) | > 100 µM (inactive) | > 100 µM (inactive) | > 100 µM (inactive) | > 100 µM (inactive) | > 100 µM (inactive)
4 | CC(C)/C(Cl)=N/OC(=O)Nc1ccc(Cl)c(Cl)c1 | 2.49 µM (inactive) | 2.33 | 2 µM (inactive) | 15.3 µM (inactive) | 1.75 µM (inactive) | 14.6 µM (inactive) | 21.2 µM (inactive) | 17.1 µM (inactive) | 2.18 µM (inactive) | 19.7 µM (inactive) | 3.59 µM (inactive) | 1.83 µM (inactive) | 1.64 µM (inactive) | 2.45 µM (inactive) | 18.2 µM (inactive) | 4.29 µM (inactive) | 21.4 µM (inactive) | 16.7 µM (inactive) | 4.84 µM (inactive)
5 | O=C(c1ccccc1)c1ccc2[nH]c(-c3c(Cl)c(Cl)c(Cl)c(Cl)c3C(=O)N/N=C/c3ccc(Cl)cc3)nc2c1 | 28.2 µM (inactive) | 24.2 | 23.2 µM (inactive) | 42.6 µM (inactive) | 61.8 µM (inactive) | 43.3 µM (inactive) | 44.1 µM (inactive) | 41.1 µM (inactive) | 44.6 µM (inactive) | 47 µM (inactive) | 29.8 µM (inactive) | 28.1 µM (inactive) | 34 µM (inactive) | 30.1 µM (inactive) | 31.7 µM (inactive) | 18.3 µM (inactive) | 33 µM (inactive) | 47.8 µM (inactive) | 33.7 µM (inactive)
6 | COC(=O)c1cc2cc3c(c(O)c2c(=O)o1)O[C@@]1(Oc2c(O)c4c(c(O)c2[C@H]1OC1CC(OC)C(O)C(C)O1)C(=O)C=C(OC)C4=O)[C@H](O)C3 (stereo not given in full) | 0.458 µM (active) | 0.908 | 1.74 µM (inactive) | 1.37 µM (inactive) | 0.448 µM (active) | 2 µM (inactive) | 0.785 µM (active) | 1.85 µM (inactive) | 0.735 µM (active) | 0.652 µM (active) | 1.22 µM (inactive) | 1.51 µM (inactive) | 0.492 µM (active) | 1.17 µM (inactive) | 1.14 µM (inactive) | 1.5 µM (inactive) | 1.05 µM (active) | 4.62 µM (inactive) | 1.3 µM (inactive)
7 | CC(C)(CO)NC1=C(Cl)C(=O)c2c(O)ccc(O)c2C1=O | 0.267 µM (active) | 0.557 | 1.87 µM (inactive) | 1.55 µM (inactive) | 1.96 µM (inactive) | 1.71 µM (inactive) | 1.73 µM (inactive) | 1.57 µM (inactive) | 1.57 µM (inactive) | 1.31 µM (inactive) | 0.885 µM (active) | 1.22 µM (inactive) | 0.45 µM (active) | 0.865 µM (active) | 1.56 µM (inactive) | 1.93 µM (inactive) | 1.86 µM (inactive) | 1.88 µM (inactive) | 0.942 µM (active)
8 | CC1(C)/C(=N\NC(N)=O)C2CCC1C2 (stereo not given) | > 100 µM (inactive) | > 100 | > 100 µM (inactive) | > 100 µM (inactive) | > 100 µM (inactive) | > 100 µM (inactive) | > 100 µM (inactive) | > 100 µM (inactive) | > 100 µM (inactive) | > 100 µM (inactive) | > 100 µM (inactive) | > 100 µM (inactive) | > 100 µM (inactive) | > 100 µM (inactive) | > 100 µM (inactive) | > 100 µM (inactive) | > 100 µM (inactive) | > 100 µM (inactive) | > 100 µM (inactive)
9 | C[C@@H](CN1CC(=O)NC(=O)C1)N1CC(=O)NC(=O)C1 [DEXRAZOXANE] | 93.1 µM (inactive) | 122 | 173 µM (inactive) | 354 µM (inactive) | 90.6 µM (inactive) | 492 µM (inactive) | 228 µM (inactive) | 227 µM (inactive) | 118 µM (inactive) | 318 µM (inactive) | 241 µM (inactive) | 12.5 µM (inactive) | 236 µM (inactive) | 360 µM (inactive) | 66.8 µM (inactive) | 109 µM (inactive) | 37.2 µM (inactive) | 282 µM (inactive) | 230 µM (inactive)
10 | O=C(O)C[n+]1cn(NC(=O)Cc2ccccc2)cn1 | > 10 µM (inactive) | > 10 | 7.16 µM (inactive) | > 10 µM (inactive) | > 10 µM (inactive) | > 10 µM (inactive) | > 10 µM (inactive) | > 10 µM (inactive) | > 10 µM (inactive) | > 10 µM (inactive) | > 10 µM (inactive) | > 10 µM (inactive) | > 10 µM (inactive) | > 10 µM (inactive) | > 10 µM (inactive) | > 10 µM (inactive) | > 10 µM (inactive) | > 10 µM (inactive) | > 10 µM (inactive)
11 | CC1(C)O[C@@H](CP(c2ccc3ccccc3c2)c2ccc3ccccc3c2)[C@H](CP(c2ccc3ccccc3c2)c2ccc3ccccc3c2)O1 | 77.8 µM (inactive) | > 100 | > 100 µM (inactive) | > 100 µM (inactive) | > 100 µM (inactive) | > 100 µM (inactive) | > 100 µM (inactive) | > 100 µM (inactive) | > 100 µM (inactive) | > 100 µM (inactive) | > 100 µM (inactive) | > 100 µM (inactive) | > 100 µM (inactive) | > 100 µM (inactive) | > 100 µM (inactive) | 78.2 µM (inactive) | > 100 µM (inactive) | > 100 µM (inactive) | > 100 µM (inactive)
12 | CCCCCCCCCCCCOP(=O)(O)OCC(N)C(=O)O (stereo not given) | 22 µM (inactive) | 17 | 69.8 µM (inactive) | 15.5 µM (inactive) | 30.1 µM (inactive) | 37.2 µM (inactive) | 11.9 µM (inactive) | 17.1 µM (inactive) | 12.1 µM (inactive) | 18.5 µM (inactive) | 21.2 µM (inactive) | > 100 µM (inactive) | 20.4 µM (inactive) | 68.1 µM (inactive) | 15.4 µM (inactive) | > 100 µM (inactive) | 24.7 µM (inactive) | 36.3 µM (inactive) | 21.2 µM (inactive)
13 | CSC1=N/C(=C\c2ccco2)C(=O)N1CN1CCOCC1 | 41.3 µM (inactive) | 33.7 | > 79.1 µM (inactive) | > 69.8 µM (inactive) | 32 µM (inactive) | 29.7 µM (inactive) | > 100 µM (inactive) | > 100 µM (inactive) | 29.2 µM (inactive) | > 100 µM (inactive) | > 100 µM (inactive) | 38.5 µM (inactive) | 30.7 µM (inactive) | > 92.3 µM (inactive) | > 100 µM (inactive) | 48.1 µM (inactive) | > 100 µM (inactive) | > 61.8 µM (inactive) | 19.4 µM (inactive)
14 | Cn1cnc([N+](=O)[O-])c1SCC(=O)O | > 100 µM (inactive) | > 100 | > 100 µM (inactive) | > 100 µM (inactive) | > 100 µM (inactive) | > 100 µM (inactive) | > 100 µM (inactive) | > 100 µM (inactive) | > 100 µM (inactive) | > 100 µM (inactive) | > 100 µM (inactive) | > 100 µM (inactive) | > 100 µM (inactive) | > 100 µM (inactive) | > 100 µM (inactive) | > 100 µM (inactive) | > 100 µM (inactive) | > 100 µM (inactive) | > 100 µM (inactive)
15 | NCCCCNCCCN1CC1 | 2.29 µM (inactive) | 4.91 | 3.15 µM (inactive) | 1.77 µM (inactive) | 0.0893 µM (active) | 5.06 µM (inactive) | 1.3 µM (inactive) | 0.977 µM (active) | 2.42 µM (inactive) | 0.246 µM (active) | 1.62 µM (inactive) | 0.871 µM (active) | 0.284 µM (active) | 2.89 µM (inactive) | 0.92 µM (active) | 0.354 µM (active) | 4.94 µM (inactive) | 1.16 µM (inactive) | 1.06 µM (active)
